Consider two compounds from patent publication US20250387390A1, “METHODS FOR TREATING FIBROSIS USING PKM2 ACTIVATORS” (Proda Biotech L.L.C., priority 2020, published 2025).

The subject of assay [1] is TAA/alcohol liver fibrosis. Kind of assay: TAA/alcohol liver fibrosis induction in mice with subsequent treatment. It is filed as in vivo. How it is done:
(§1) Sections (A) & (E) of FIG. 1 are schematic illustrations of the schedule of TAA/alcohol liver fibrosis (A) and bleomycin lung fibrosis (E) induction and subsequent TEPP-46 treatments. […] Sections (C) & (D) of FIG. 1 show quantitation of collagen levels in Sirius red (B) and Masson's trichrome (F) staining and a-SMA IF (B) and IHC (F) staining of fibrotic liver (B) and lung (F) using ImageJ software. Quantification was calculated from measurements of 10 mice. Four randomly selected tissue sections per animal and three randomly selected view fields in each section were quantified. The quantity of collagen levels in Sirius red or Masson's trichrome stain and α-SMA IF or IHC stain is presented as % of total area. […] Sections (G) & (H) show Quantitative analyses of Serine (G) and Glycine (H) levels in tissue extracts of liver and lung from mice treated with indicated agents by HPLC-ms. Serine and glycine levels are presented as relative abundance by defining the vehicle treated group as 100%. Error bars in Sections C, D, G, H represent mean±S.E.M

Another assay concerns bleomycin lung fibrosis. Kind of assay: Bleomycin lung fibrosis induction in mice with subsequent treatment. It is filed as in vivo. The method, then:
as §1

For a further assay, the system named is cerulein pancreatitis. The assay can be described thus: Cerulein pancreatitis induction in mice with subsequent treatment. The settings on record: cerulein-induced, vs vehicle. The assay is classed as in vivo. How it is done: Section (A) is schematic illustration of the schedule of cerulein (red arrows) pancreatitis induction and subsequent TEPP-46 treatments (green arrows). […] Quantification was calculated from measurements of 6 mice. Four randomly selected tissue sections per animal and three randomly selected view fields in each section were quantified. The quantity of collagen levels in Sirius red stain is presented as % of total area.

Assay [2] relates to myocardial infarction (MI). The assay can be described thus: Myocardial infarction by left ventricle ligation, cardiac fibrosis. It is filed as in vivo. The settings on record: C57BL/6J mice, LV ligation 70 minutes, i.p. injection, vs vehicle. The method, then:
C57BL/6J mice (n=6/group) were induced myocardial infarction (MI) by left ventricle ligation (LV). Sham are the mice underwent the same surgical procedure without LV. After 70 minutes, the LV was relieved. All mice were immediately treated with TEPP-46 or vehicle by i.p. injection. No treatment for the Sham mice. […] Scale bars, […]. […] The quantification is a mean value of randomly selected 4 fields from each section. Four sections were randomly selected from each mouse. The quantification is presented as blue staining Collagen Area (%). Error bars represent mean±S.E.M. * P<0.05, ** P<0.01, *** P<0.001, by unpaired two-tailed Student's t-test.

For assay [3], the system named is LX2 cells. The assay can be described thus: qRT-PCR of Col1A1, PHGDH, PSAT1, SHMT1, SHMT2 mRNA in LX2 cells after TGFβ. The assay is classed as cell-based. The settings on record: following TGFβ treatment, vs DMSO, qRT-PCR fold change. The method, then: Cellular levels of mRNA of collagen (Col1A1), PHGDH, PSAT1, SHMT1, and SHMT2 in LX2 cells with DASA-10 (black bar) or DMSO (open bar) treatment following TGFβ treatment were analyzed by qRT-PCR. The cellular mRNA levels are presented as fold change by comparing controls. Error bars represent mean±S.E.M.
On the technique in general: Real-time PCR tracks product formation cycle by cycle.

The test system of assay [4] is LX2 cells. The assay can be described thus: LOX and LOXL2 expression in LX2 cells under hypoxia (immunoblot, qPCR). The settings on record: 10 μM, hypoxia 24 hours, vs DMSO. The assay is classed as cell-based. The method, then: (§2) Section (B) Relative band intensities were calculated for both LOX and LOXL2 using ImageJ.
In general terms: In western blotting, separated proteins are transferred to a membrane and probed.

The test system of the next assay is NLF cells. Kind of assay: LOX and LOXL2 expression in NLF cells under hypoxia (immunoblot, qPCR). It is filed as cell-based. As to conditions: 10 μM, hypoxia 24 hours, vs DMSO. How it is done:
as §2

Consider `Cn1c2cc([S+](C)[O-])sc2c2cnn(Cc3cccc(N)c3)c(=O)c21` (centres unmarked) [TEPP-46], for which, in assay [1] (TAA/alcohol liver fibrosis, mice, vs vehicle), the “liver fibrosis (collagen by Sirius red, α-SMA IF staining, % of total area)” value was “reverses liver and lung fibrosis”. Further, the “LOX expression in vivo (IHC LOX positive area, LOX activity)” value in assay [1] (fibrotic liver, TAA/alcohol model) is “reduces LOX expression in vivo”; with bleomycin lung fibrosis (fibrotic lungs, bleomycin model), “reduces LOX expression in vivo”. For the same compound, the “serine/glycine metabolism (serine and glycine levels in tissue extracts by HPLC-ms)” value in assay [1] (fibrotic liver, relative abundance, vehicle group = 100%) is “decreases serine/glycine metabolism”; with bleomycin lung fibrosis (fibrotic lung, relative abundance, vehicle group = 100%), “decreases serine/glycine metabolism”. Also, the “lung fibrosis (collagen by Masson's trichrome, α-SMA IHC staining, % of total area)” value in the assay on bleomycin lung fibrosis (bleomycin lung fibrosis, mice, vs vehicle) is “reverses liver and lung fibrosis”. In the assay on cerulein pancreatitis, the “pancreatitis (collagen in Sirius red staining, H&E of pancreas)” value is given as “reverse pancreatitis”. In addition, the “cardiac fibrosis after infarction (trichrome Collagen Area %)” value in assay [2] is on record as “decreases cardiac fibrosis after infarction”.

In the case of `O=S(=O)(c1ccc2c(c1)OCCO2)N1CCN(S(=O)(=O)c2c(F)cccc2F)CC1` [DASA-10], the “metabolic enzymes involved in serine/glycine metabolism (mRNA of Col1A1, PHGDH, PSAT1, SHMT1, SHMT2)” value with LX2 cells [3] is “decreases metabolic enzymes that are involved in serine/glycine metabolism”. Besides, the “LOX and LOXL2 expression” value in the assay with LX2 cells [4] was “reduces LOX and LOXL2 expression”; in the assay on NLF cells, “reduces LOX and LOXL2 expression”.
